# Assay results from paper PMC3264756 (2011).
# pEC50: −log10 of the molar value.
# Target: acetyl-CoA carboxylase (TbACC) (Trypanosoma brucei, UniProt Q57YR7)
# Assay type: biochemical
structure (smiles),measurement,value
CC(Oc1ccc(Oc2ncc(C(F)(F)F)cc2Cl)cc1)C(=O)O (stereo not shown) [haloxyfop],pEC50,4.17
